Like-named read-outs stand apart in the source and are kept apart here.
Assays:
resistant melanoma PDX = resistant melanoma PDX model; cited from earlier work
PD-1 [1] = experiment: Flow cytometry with anti-PD-1 antibodies, Jurkat T cells; format: cell-based, human; conditions: same concentration range as BT2, 48 h (FIG. 17B)
Experimental: Flow cytometry with anti-PD-1 antibodies. Jurkat T cells were grown in 6 well plates containing RPMI 1640 and 10% FBS. After 24 h, the cells were treated with various concentrations of BT2 or BT3 for 48 h. Alternatively, the cells were incubated with 3 μM BT2 for various times. After treatment, the cells were washed with PBS, and centrifuged at 300×g for 5 min, and resuspended at 5×10^6 cells/ml. The cells were then incubated with BV421 conjugated mouse anti-human CD279 (PD-1) (BD, cat. no. 562516) or BV421 conjugated mouse IgG1 (BD, cat. no. 562438) for 45 min at 22° C. Cells were then washed twice with 1 ml of Stain Buffer, centrifuged and pellets were resuspended in 0.5 ml Stain Buffer. Stained cell suspensions were analyzed by flow cytometry using a BD FACSCanto (II).
Jurkat T cells express PD-1 (Yi et al., 2023) and are widely used as model human T cells (e.g., Repas et al., 2022). […] BT2's effects were not only dose-dependent but time-dependent. BT2 (3 μM) inhibited PD-1 levels by 50% after 24 h and by 80% after 48 h (FIG. 17C).

PD-1 [2] = experiment: Western blotting for PD-1, Jurkat T cells; format: cell-based, human; conditions: 24 h; for PD-1 expression (Western blot): various concentrations
Experimental: (§1) Western blotting. Cells were treated with compounds and times indicated and total cell lysates were prepared in RIPA buffer. Lysates (10 μg) were resolved by SDS-PAGE and transferred to Immobilon-P polyvinylidene difluoride (PVDF) membranes (Millipore, USA).
(§2) Membranes were blocked with 5% skim milk and incubated with rabbit monoclonal anti-c-Jun (Abcam, cat. no. ab32137; mouse, rat and human reactive) antibody, rabbit monoclonal anti-PD-1 (Abcam, cat. no. ab214421) antibody, mouse monoclonal β-actin antibody (Sigma-Aldrich, cat. no. A5316), anti-phospho-SAPK/JNK (Thr^183/Tyr^185) (98F2) (CST, cat. no. 4671) antibody, anti-phospho-p44/42 MAPK (ERK1/2) (Thr^202/Tyr^204) (D13.14.4E) (CST, cat. no. 4370) antibody, anti-phospho-p38 MAPK (Thr^180/Tyr^182) (D3F9) (CST, cat. no. 4511) antibody, anti-SAPK/JNK antibody (CST, cat. no. 9252), anti-p44/42 MAPK (ERK1/2) (137F5) antibody (CST, cat. no. 4695), anti-p38 MAPK antibody (CST, cat. no. 9212), anti-DUSP8 antibody (Abcam, cat. no. ab198175) or anti-c-MAF (BLR045F) antibody (Abcam, cat. no. ab243901). This was followed by incubation with horseradish peroxidase-conjugated secondary goat anti-rabbit (DAKO, cat. no. P0448) or goat anti-mouse (DAKO, cat. no. P0447) antibody. Chemiluminescence was detected using the Western Lightning Chemiluminescence system (Thermo Scientific, USA) and ImageQuant™ LAS 4000 biomolecular imager (GE Healthcare Life Sciences, USA). Band intensity in images generated with the LAS 4000 was quantified using NIH Image J.

[3] = tested on: non-small cell lung carcinoma; conditions: non-small cell lung carcinoma-bearing mice; cited from earlier work
p-ERK (Thr^202/Tyr^204) [4] = experiment: Western blotting for p-ERK, A375 melanoma cells; format: cell-based, human; conditions: 10 or 100 nM, 24 h
Experimental: as §1
as §2, with “4695), anti-p38 MAPK antibody (CST, cat. no. 9212), anti-DUSP8 antibody (Abcam, cat. no. ab198175) or anti-c-MAF (BLR045F) antibody (Abcam, cat. no. ab243901). This was followed by incubation with horseradish peroxidase-conjugated secondary goat anti-rabbit (DAKO, cat. no. P0448) or goat anti-mouse (DAKO, cat. no. P0447) antibody.” left out
(§3) The effect of BT2 on ERK phosphorylation (p-ERK) was evaluated in human melanoma cells given that MAP kinase activation is key to melanoma progression and the paucity of clinically approved ERK inhibitors. […]

p-ERK (Thr^202/Tyr^204) [5] = experiment: Western blotting for p-ERK, MeWo melanoma cells; format: cell-based, human; conditions: 10 or 100 nM, 24 h
Experimental: as §1
as §2, with “4695), anti-p38 MAPK antibody (CST, cat. no. 9212), anti-DUSP8 antibody (Abcam, cat. no. ab198175) or anti-c-MAF (BLR045F) antibody (Abcam, cat. no. ab243901). This was followed by incubation with horseradish peroxidase-conjugated secondary goat anti-rabbit (DAKO, cat. no. P0448) or goat anti-mouse (DAKO, cat. no. P0447) antibody.” left out
as §3

A375 cells = experiment: Apoptosis, flow cytometry with Annexin V-FITC, A375; format: cell-based, human; conditions: 1 μM, 24 h
Experimental: (§4) Flow cytometry with Annexin V-FITC. Cells were seeded into 6 well plates in normal culture medium containing 10% FBS. After culturing overnight, the cells were incubated in complete medium containing vehicle, BT2 or SCH772984 at 1 μM and left for 24 h. The culture medium was removed and the cells were washed with PBS. Accutase (Stem Cell Technologies, cat. no. 07920) was used to detach the cells. The cells were then washed and centrifuged at 300 g for 5 min and resuspended at 1×10^6 cells/ml in 500 μl of 1× binding buffer (Annexin V-FITC Apoptosis Staining/Detection Kit, Abcam, cat. no. ab14085). The cells were transferred to 12×75 mm tubes and annexin V-FITC/propidium iodide (PI) was added and incubated for 5 min at 22° C. protected from light. Stained cell suspensions were analyzed by flow cytometry using a BD LSRFortessa X20.
(§5) The morphology of A375 and MeWo cells exposed to 1 μM of BT2 or SCH772984 for 24 h was also assessed.

MeWo cells = experiment: Apoptosis, flow cytometry with Annexin V-FITC, MeWo; format: cell-based, human; conditions: 1 μM, 24 h
Experimental: as §4, §5

advanced melanoma = conditions: cited from earlier work; for 5 year overall survival: advanced melanoma

## Cc1cnc(NC2CCOCC2)nc1-n1cnc(C(=O)N[C@H](CN)c2cc(F)cc(Cl)c2)c1 [ASN007]
Resistant melanoma PDX
  efficacy: demonstrates efficacy

## CCN1C(=O)c2cc(N)ccc2Oc2ccccc21 [BT3, 2-amino-10-ethyldibenzo[b,f][1,4]oxazepin-11(10H)-one]
PD-1 [1]
  effect on PD-1 expression: no inhibitory effect

## COc1cccc(-c2cc(=O)c3ccccc3o2)c1N [PD98059]
PD-1 [2]
  PD-1 expression (Western blot): no effect on PD-1 expression

## O=C(NOC[C@H](O)CO)c1ccc(F)c(F)c1Nc1ccc(I)cc1F [PD0325901]
[3]
  effect on efficacy of anti-PD-1 antibodies: can enhance the efficacy of anti-PD-1 antibodies

## O=C(Nc1ccc2[nH]nc(-c3ccncc3)c2c1)[C@@H]1CCN(CC(=O)N2CCN(c3ccc(-c4ncccn4)cc3)CC2)C1 [SCH772984, reference compound]
p-ERK (Thr^202/Tyr^204) [4]
  ERK phosphorylation (p-ERK, Western blot): suppressed ERK phosphorylation
p-ERK (Thr^202/Tyr^204) [5]
  ERK phosphorylation (p-ERK, Western blot): suppressed ERK phosphorylation
A375 cells
  apoptosis (Annexin V-FITC+ PI−): no or less potent pro-apoptotic effects
MeWo cells
  apoptosis (Annexin V-FITC+ PI−): no or less potent pro-apoptotic effects
PD-1 [2]; Western blot
  potency in suppressing PD-1 expression, fold less potent than BT2: > 10 fold
PD-1 [2]
  PD-1 expression (Western blot): suppressed PD-1 expression

## pembrolizumab: anti-PD-1 antibody
Advanced melanoma; advanced melanoma patients
  patients with treatment-related adverse events: 86%
Advanced melanoma; all patients
  5 year overall survival: 34%
Advanced melanoma; treatment-naive patients
  5 year overall survival: 41%

— patent US20250352555A1, “METHOD OF INCREASING IMMUNE CELL ACTIVATION AND/OR TREATING CANCER USING DIBENZOXAZEPINONES” (VASCULAR THERAPEUTICS PTY LTD, priority 2022, published 2025)
